# In ChEMBL document CHEMBL6109092, “Anti-HBV activity of (R)-gentiandiol, a metabolite of Swertiamarin, in transgenic mice: Insights from non-targeted serum metabolomics” (Bioorg Med Chem, 2025):
# Active and inactive are the calls of the source. No cut-off for these calls is given here.
# Assays:
# Assay type in all cases: functional, organism-based
# Hepatitis B virus [1] = assay: In vivo antiviral activity against HBV infected in male C57BL/6NCrl mouse assessed as reduction in HBV-DNA level at 6 mg/kg administered via tail vein measured after 8 weeks by ELISA
# Hepatitis B virus [2] = assay: In vivo antiviral activity against HBV infected in male C57BL/6NCrl mouse assessed as reduction in HBsAg level at 6 mg/kg administered via tail vein measured after 8 weeks by ELISA
# Hepatitis B virus [3] = assay: In vivo antiviral activity against HBV infected in male C57BL/6NCrl mouse assessed as reduction in HBeAg level at 6 mg/kg administered via tail vein measured after 8 weeks by ELISA
# Hepatitis B virus [4] = assay: In vivo antiviral activity against HBV infected in male C57BL/6NCrl mouse assessed as reduction in HBV-DNA level at 0.065 mg/kg, IG measured after 8 weeks by ELISA
# Hepatitis B virus [5] = assay: In vivo antiviral activity against HBV infected in male C57BL/6NCrl mouse assessed as reduction in HBsAg level at 0.065 mg/kg, IG measured after 8 weeks by ELISA
# Hepatitis B virus [6] = assay: In vivo antiviral activity against HBV infected in male C57BL/6NCrl mouse assessed as reduction in HBeAg level at 0.065 mg/kg, IG measured after 8 weeks by ELISA
# Hepatitis B virus [7] = assay: In vivo antiviral activity against HBV infected in male C57BL/6NCrl mouse assessed as reduction in HBV-DNA level at 0.026 g/Kg, IG measured after 8 weeks by ELISA
# Hepatitis B virus [8] = assay: In vivo antiviral activity against HBV infected in male C57BL/6NCrl mouse assessed as reduction in HBsAg level at 0.026 g/Kg, IG measured after 8 weeks by ELISA
# Hepatitis B virus [9] = assay: In vivo antiviral activity against HBV infected in male C57BL/6NCrl mouse assessed as reduction in HBeAg level at 0.026 g/Kg, IG measured after 8 weeks by ELISA
# Mus musculus [10] = assay: Reversal of arachidonic acid level in HBV infected male C57BL/6NCrl mouse serum at 0.026 mg/kg, IG by UPLC-Q/TOF-MS analysis.
# Mus musculus [11] = assay: Reversal of citric acid level in HBV infected male C57BL/6NCrl mouse serum at 0.026 mg/kg, IG by UPLC-Q/TOF-MS analysis.
# Mus musculus [12] = assay: Reversal of phenylalanine level in HBV infected male C57BL/6NCrl mouse serum at 0.026 mg/kg, IG by UPLC-Q/TOF-MS analysis.
# Mus musculus [13] = assay: Reversal of tyrosine in HBV infected male C57BL/6NCrl mouse serum at 0.026 mg/kg, IG by UPLC-Q/TOF-MS analysis.
# Hepatitis B virus [14] = assay: In vivo antiviral activity against HBV infected in male C57BL/6NCrl mouse assessed as reduction in HBV-DNA level at 3 mg/kg administered via tail vein measured after 8 weeks by ELISA
# Hepatitis B virus [15] = assay: In vivo antiviral activity against HBV infected in male C57BL/6NCrl mouse assessed as reduction in HBV-DNA level at 1.5 mg/kg administered via tail vein measured after 8 weeks by ELISA
# Hepatitis B virus [16] = assay: In vivo antiviral activity against HBV infected in male C57BL/6NCrl mouse assessed as reduction in HBsAg level at 3 mg/kg administered via tail vein measured after 8 weeks by ELISA
# Hepatitis B virus [17] = assay: In vivo antiviral activity against HBV infected in male C57BL/6NCrl mouse assessed as reduction in HBsAg level at 1.5 mg/kg administered via tail vein measured after 8 weeks by ELISA
# Hepatitis B virus [18] = assay: In vivo antiviral activity against HBV infected in male C57BL/6NCrl mouse assessed as reduction in HBeAg level at 3 mg/kg administered via tail vein measured after 8 weeks by ELISA
# Hepatitis B virus [19] = assay: In vivo antiviral activity against HBV infected in male C57BL/6NCrl mouse assessed as reduction in HBeAg level at 1.5 mg/kg administered via tail vein measured after 8 weeks by ELISA
# Hepatitis B virus [20] = assay: In vivo antiviral activity against HBV infected in male C57BL/6NCrl mouse assessed as reduction in HBV-DNA level administered via tail vein measured after 8 weeks by ELISA; settings: dose 1.5-6 mg/kg
# Mus musculus [21] = assay: Reduction in taurocholic acid in HBV infected male C57BL/6NCrl mouse serum at 50 to 150 mg/kg, administered via tail vein by UPLC-Q/TOF-MS analysis.; settings: dose 50-150 mg/kg
# Mus musculus [22] = assay: Reversal of phenylalanine level in HBV infected male C57BL/6NCrl mouse serum at 50 to 150 mg/kg, administered via tail vein by UPLC-Q/TOF-MS analysis.; settings: dose 50-150 mg/kg
# Mus musculus [23] = assay: Reversal of tyrosine in HBV infected male C57BL/6NCrl mouse serum at 50 to 150 mg/kg, administered via tail vein by UPLC-Q/TOF-MS analysis.; settings: dose 50-150 mg/kg
# Mus musculus [24] = assay: Reversal of citric acid level in HBV infected male C57BL/6NCrl mouse serum at 50 to 150 mg/kg, administered via tail vein by UPLC-Q/TOF-MS analysis.; settings: dose 50-150 mg/kg
# Mus musculus [25] = assay: Reversal of arachidonic acid level in HBV infected male C57BL/6NCrl mouse serum at 50 to 150 mg/kg, administered via tail vein by UPLC-Q/TOF-MS analysis.; settings: dose 50-150 mg/kg
smiles,measurement,setting,value
O=C1OCCc2c1cncc2[C@H](O)CO,Activity,Hepatitis B virus [1],inactive
same,Activity,Hepatitis B virus [2],inactive
same,Activity,Hepatitis B virus [3],inactive
C=C1[C@H](CO)[C@@H](O)C[C@@H]1n1cnc2c(=O)[nH]c(N)nc21,Activity,Hepatitis B virus [4],Active
same,Activity,Hepatitis B virus [5],Active
same,Activity,Hepatitis B virus [6],Active
C=C[C@H]1[C@H](O[C@@H]2O[C@H](CO)[C@@H](O)[C@H](O)[C@H]2O)OC=C2C(=O)OCC[C@]21O,Activity,Hepatitis B virus [7],Active
same,Activity,Hepatitis B virus [8],Active
same,Activity,Hepatitis B virus [9],Active
same,Activity,Mus musculus [10],Active
same,Activity,Mus musculus [11],Active
same,Activity,Mus musculus [12],Active
same,Activity,Mus musculus [13],Active
O=C1OCCc2c1cncc2[C@@H](O)CO,Activity,Hepatitis B virus [1],Active
same,Activity,Hepatitis B virus [14],Active
same,Activity,Hepatitis B virus [15],Active
same,Activity,Hepatitis B virus [2],Active
same,Activity,Hepatitis B virus [16],Active
same,Activity,Hepatitis B virus [17],Active
same,Activity,Hepatitis B virus [3],Active
same,Activity,Hepatitis B virus [18],Active
same,Activity,Hepatitis B virus [19],Active
same,Activity,Hepatitis B virus [20],Dose-dependent-effect
same,Activity,Mus musculus [21],Active
same,Activity,Mus musculus [22],Active
same,Activity,Mus musculus [23],Active
same,Activity,Mus musculus [24],Active
same,Activity,Mus musculus [25],Active
